Measurements taken from ChEMBL document CHEMBL1201862, “PubChem BioAssay data set” (2004).
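Step 1: Grow cells in 96-well plates. Step 2: Expose to compound for 48 hours at 5 concentrations. Step 3: Interpolate endpoints linearly; if unreached, use highest concentration. The concentration for 50% growth inhibition is given as GI50.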 Calls of active or inactive are those of the source. No stated cut-off is given here; in the data, active = GI50 up to about 1.1 µM and inactive = higher.

How the values were obtained:
Experiment in all cases: DTP human tumour cell line panel, 48 h
[1] = tested on: KM12
[2] = tested on: SNB-19
[3] = tested on: Malme-3M
[4] = tested on: HL-60
[5] = tested on: DLD-1
[6] = tested on: EKVX
[7] = tested on: SK-MEL-28
[8] = tested on: KM-20L2
[9] = tested on: SK-OV-3
[10] = tested on: NCI-H226
[11] = tested on: UO-31
[12] = tested on: OVCAR-3
[13] = tested on: SW-620
[14] = tested on: SR
[15] = tested on: UACC-62
[16] = tested on: SK-MEL-2
[17] = tested on: UACC-257
[18] = tested on: SF-295
[19] = tested on: 786-0
[20] = tested on: CCRF-CEM
[21] = tested on: M19-MEL
[22] = tested on: SN12C
[23] = tested on: LOX IMVI
[24] = tested on: HOP-62
[25] = tested on: MOLT-4
[26] = tested on: HCT-116
[27] = tested on: SNB-78
[28] = tested on: SF-539
[29] = tested on: TK-10
[30] = tested on: NCI-H522
[31] = tested on: SNB-75
[32] = tested on: HT-29
[33] = tested on: HCC 2998
[34] = tested on: RPMI-8226
[35] = tested on: NCI-H23
[36] = tested on: COLO 205
[37] = tested on: LXFL 529
[38] = tested on: A549
[39] = tested on: K562
[40] = tested on: DMS-273
[41] = tested on: ACHN
[42] = tested on: M14
[43] = tested on: SF-268
[44] = tested on: NCI-H460
[45] = tested on: XF498
[46] = tested on: OVCAR-8
[47] = tested on: HOP-18
[48] = tested on: U-251
[49] = tested on: IGROV-1
[50] = tested on: HOP-92
[51] = tested on: RXF 393
[52] = tested on: OVCAR-5
[53] = tested on: CAKI-1
[54] = tested on: HCT-15
[55] = tested on: OVCAR-4
[56] = tested on: A498
[57] = tested on: SK-MEL-5

SMILES: Nc1nc(O)c([N+](=O)[O-])c(NCCOCP(=O)(O)O)n1
- GI50 [1]: > 100 µM (inactive)
- GI50 [2]: > 100 µM (inactive)
- GI50 [3]: > 100 µM (inactive)
- GI50 [4]: > 100 µM (inactive)
- GI50 [5]: > 100 µM (inactive)
- GI50 [6]: > 100 µM (inactive)
- GI50 [7]: > 100 µM (inactive)
- GI50 [8]: > 100 µM (inactive)
- GI50 [9]: > 100 µM (inactive)
- GI50 [10]: > 100 µM (inactive)
- GI50 [11]: > 100 µM (inactive)
- GI50 [12]: > 100 µM (inactive)
- GI50 [13]: > 100 µM (inactive)
- GI50 [14]: > 100 µM (inactive)
- GI50 [15]: > 100 µM (inactive)
- GI50 [16]: > 100 µM (inactive)
- GI50 [17]: > 100 µM (inactive)
- GI50 [18]: > 100 µM (inactive)
- GI50 [19]: > 100 µM (inactive)
- GI50 [20]: > 100 µM (inactive)
- GI50 [21]: > 100 µM (inactive)
- GI50 [22]: > 100 µM (inactive)
- GI50 [23]: > 100 µM (inactive)
- GI50 [24]: > 100 µM (inactive)
- GI50 [25]: > 100 µM (inactive)
- GI50 [26]: > 100 µM (inactive)
- GI50 [27]: > 100 µM (inactive)
- GI50 [28]: > 100 µM (inactive)
- GI50 [29]: > 100 µM (inactive)
- GI50 [30]: > 100 µM (inactive)
- GI50 [31]: > 100 µM (inactive)
- GI50 [32]: > 100 µM (inactive)
- GI50 [33]: > 100 µM (inactive)
- GI50 [34]: > 100 µM (inactive)
- GI50 [35]: > 100 µM (inactive)
- GI50 [36]: > 100 µM (inactive)
- GI50 [37]: > 100 µM (inactive)
- GI50 [38]: > 100 µM (inactive)
- GI50 [39]: > 100 µM (inactive)
- GI50 [40]: > 100 µM (inactive)
- GI50 [41]: > 100 µM (inactive)
- GI50 [42]: > 100 µM (inactive)
- GI50 [43]: > 100 µM (inactive)
- GI50 [44]: > 100 µM (inactive)
- GI50 [45]: > 100 µM (inactive)
- GI50 [46]: > 100 µM (inactive)
- GI50 [47]: > 100 µM (inactive)
- GI50 [48]: > 100 µM (inactive)
- GI50 [49]: > 100 µM (inactive)
- GI50 [50]: > 100 µM (inactive)
- GI50 [51]: > 100 µM (inactive)

SMILES: CC1=CC2C(=O)N(c3ccccc3)C(=O)C2CC1n1[nH]c(=O)n(Cc2ccccc2)c1=O (stereo not given)
- GI50 [1]: > 100 µM (inactive)
- GI50 [2]: > 100 µM (inactive)
- GI50 [3]: > 100 µM (inactive)
- GI50 [52]: > 100 µM (inactive)
- GI50 [53]: > 100 µM (inactive)
- GI50 [4]: > 100 µM (inactive)
- GI50 [5]: > 100 µM (inactive)
- GI50 [6]: > 100 µM (inactive)
- GI50 [7]: > 100 µM (inactive)
- GI50 [8]: > 100 µM (inactive)
- GI50 [9]: > 100 µM (inactive)
- GI50 [10]: > 100 µM (inactive)
- GI50 [11]: > 100 µM (inactive)
- GI50 [12]: > 100 µM (inactive)
- GI50 [13]: > 100 µM (inactive)
- GI50 [14]: > 100 µM (inactive)
- GI50 [15]: > 100 µM (inactive)
- GI50 [16]: > 100 µM (inactive)
- GI50 [17]: > 100 µM (inactive)
- GI50 [18]: > 100 µM (inactive)
- GI50 [19]: > 100 µM (inactive)
- GI50 [20]: > 100 µM (inactive)
- GI50 [22]: > 100 µM (inactive)
- GI50 [23]: > 100 µM (inactive)
- GI50 [24]: > 100 µM (inactive)
- GI50 [26]: > 100 µM (inactive)
- GI50 [27]: > 100 µM (inactive)
- GI50 [28]: > 100 µM (inactive)
- GI50 [29]: > 100 µM (inactive)
- GI50 [30]: > 100 µM (inactive)
- GI50 [31]: > 100 µM (inactive)
- GI50 [32]: > 100 µM (inactive)
- GI50 [54]: > 100 µM
- GI50 [33]: > 100 µM (inactive)
- GI50 [55]: > 100 µM (inactive)
- GI50 [35]: > 100 µM (inactive)
- GI50 [36]: > 100 µM (inactive)
- GI50 [37]: > 100 µM (inactive)
- GI50 [38]: > 100 µM (inactive)
- GI50 [39]: > 100 µM (inactive)
- GI50 [40]: > 100 µM (inactive)
- GI50 [41]: > 100 µM (inactive)
- GI50 [42]: > 100 µM (inactive)
- GI50 [43]: > 100 µM (inactive)
- GI50 [44]: > 100 µM (inactive)
- GI50 [45]: > 100 µM (inactive)
- GI50 [56]: > 100 µM (inactive)
- GI50 [46]: > 100 µM (inactive)
- GI50 [47]: > 100 µM (inactive)
- GI50 [48]: > 100 µM (inactive)
- GI50 [57]: > 100 µM (inactive)
- GI50 [49]: > 100 µM (inactive)
- GI50 [50]: > 100 µM (inactive)
- GI50 [51]: > 100 µM (inactive)
